Test results reported in PubChem BioAssay (NCI).
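Step 1: Grow cells in 96-well plates. Step 2: Expose to compound for 48 hours at 5 concentrations. Step 3: Interpolate endpoints linearly; if unreached, use highest concentration. GI50 marks 50% less growth. TGI denotes the concentration required for complete inhibition of growth.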

Legend:
Assay in all cases: growth of human tumour cells (NCI), 48 h
[1] = system: A549 NSCLC
[2] = system: HCT-15 colon
[3] = system: HL-60(TB) leukemia
[4] = system: IGROV1 ovarian
[5] = system: MCF7 breast
[6] = system: MDA-MB-231 breast
[7] = system: NCI/ADR-RES ovarian
[8] = system: SK-MEL-28 melanoma
[9] = system: SNB-75 CNS
[10] = system: T-47D breast

| SMILES | GI50 [1] | TGI [1] | GI50 [2] | TGI [2] | GI50 [3] | TGI [3] | GI50 [4] | TGI [4] | GI50 [5] | TGI [5] | GI50 [6] | TGI [6] | GI50 [7] | TGI [7] | GI50 [8] | TGI [8] | GI50 [9] | TGI [9] | GI50 [10] | TGI [10] |
| --- | --- | --- | --- | --- | --- | --- | --- | --- | --- | --- | --- | --- | --- | --- | --- | --- | --- | --- | --- | --- |
| CC(C)=CCC/C(C)=C/CC/C(C)=C/CSC[C@H](NC(=O)CCCCCN1CCN(C)CC1)C(=O)NC1CCCCCC1 | 2.5 µM | 7.4 µM | 1.94 µM | 3.93 µM | 1.98 µM | 4.14 µM | 2.36 µM | 5.31 µM | 2.12 µM | 4.79 µM | 1.93 µM | 3.86 µM | 3.89 µM | 14.6 µM | 1.7 µM | 3.32 µM | 1.53 µM | 4.22 µM | 2.22 µM | 6.45 µM |
| CCC(=C(c1ccc(OCCN2CCCCC2)cc1)c1ccc(OCCN2CCCCC2)cc1)c1ccc(Cl)cc1 | 7.42 µM | > 16.7 µM | 1.05 µM | > 16.7 µM | 3.41 µM | 9.55 µM | 12.9 µM | > 16.7 µM | 0.761 µM | > 16.7 µM | 5.35 µM | > 16.7 µM | > 16.7 µM | > 16.7 µM | 2.8 µM | 5.26 µM | > 16.7 µM | > 16.7 µM | 9.62 µM | > 16.7 µM |
| CC(C)=CCc1cc2c(cc1O)C1=C(C(=O)C3=C(NCCS3(=O)=O)C1=O)C(C=C(C)C)O2 (stereo not given) | > 16.7 µM | > 16.7 µM | 6.21 µM | > 16.7 µM | 4.43 µM | 13.5 µM | 3.69 µM | 15 µM | 2.86 µM | 7.84 µM | 4.18 µM | 16.2 µM | > 16.7 µM | > 16.7 µM | 3.81 µM | 9.84 µM | 10.8 µM | > 16.7 µM | 4.05 µM | > 16.7 µM |
